According to PubChem BioAssay (NCI):
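96-well plates; 48 h exposure; 5 concentrations. Endpoints by linear interpolation between flanking doses. Not reached: highest tested concentration assigned. At the GI50, growth is halved. The concentration for full growth arrest is given as TGI.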

What was measured:
Assay in all cases: NCI tumour cell line growth inhibition, 48 h
786-0 renal = system: 786-0 renal
A498 renal = system: A498 renal
A549 NSCLC = system: A549 NSCLC
ACHN renal = system: ACHN renal
BT-549 breast = system: BT-549 breast
CAKI-1 renal = system: CAKI-1 renal
CCRF-CEM leukemia = system: CCRF-CEM leukemia
COLO 205 colon = system: COLO 205 colon
DU-145 prostate = system: DU-145 prostate
EKVX NSCLC = system: EKVX NSCLC
HCC-2998 colon = system: HCC-2998 colon
HCT-116 colon = system: HCT-116 colon
HCT-15 colon = system: HCT-15 colon
HL-60(TB) leukemia = system: HL-60(TB) leukemia
HOP-62 NSCLC = system: HOP-62 NSCLC
HOP-92 NSCLC = system: HOP-92 NSCLC
HS 578T breast = system: HS 578T breast
IGROV1 ovarian = system: IGROV1 ovarian
KM12 colon = system: KM12 colon
LOX IMVI melanoma = system: LOX IMVI melanoma
M14 melanoma = system: M14 melanoma
MALME-3M melanoma = system: MALME-3M melanoma
MCF7 breast = system: MCF7 breast
MDA-MB-231 breast = system: MDA-MB-231 breast
MDA-MB-435 = system: MDA-MB-435
MDA-MB-468 breast = system: MDA-MB-468 breast
MOLT-4 leukemia = system: MOLT-4 leukemia
NCI-H226 lung = system: NCI-H226 lung
NCI-H23 lung = system: NCI-H23 lung
NCI-H522 lung = system: NCI-H522 lung
NCI/ADR-RES ovarian = system: NCI/ADR-RES ovarian
OVCAR-3 ovarian = system: OVCAR-3 ovarian
OVCAR-4 ovarian = system: OVCAR-4 ovarian
OVCAR-5 ovarian = system: OVCAR-5 ovarian
OVCAR-8 ovarian = system: OVCAR-8 ovarian
PC-3 prostate = system: PC-3 prostate
RPMI-8226 leukemia = system: RPMI-8226 leukemia
RXF 393 renal = system: RXF 393 renal
SF-268 CNS = system: SF-268 CNS
SF-295 CNS = system: SF-295 CNS
SF-539 CNS = system: SF-539 CNS
SK-MEL-2 melanoma = system: SK-MEL-2 melanoma
SK-MEL-28 melanoma = system: SK-MEL-28 melanoma
SK-MEL-5 melanoma = system: SK-MEL-5 melanoma
SK-OV-3 ovarian = system: SK-OV-3 ovarian
SN12C renal = system: SN12C renal
SNB-19 CNS = system: SNB-19 CNS
SNB-75 CNS = system: SNB-75 CNS
SW-620 colon = system: SW-620 colon
T-47D breast = system: T-47D breast
TK-10 renal = system: TK-10 renal
U251 CNS = system: U251 CNS
UACC-257 melanoma = system: UACC-257 melanoma
UACC-62 melanoma = system: UACC-62 melanoma
UO-31 renal = system: UO-31 renal

COc1ccc(-c2nc3cc(C)ccc3n2CC(=O)N=Nc2c(O)[nH]c3ccc(OC)cc23)cc1
GI50 (786-0 renal): 3.37 µM
TGI (786-0 renal): 11.7 µM
GI50 (A498 renal): 11.2 µM
TGI (A498 renal): 24.6 µM
GI50 (A549 NSCLC): 1.99 µM
TGI (A549 NSCLC): 4.43 µM
GI50 (ACHN renal): 2.35 µM
TGI (ACHN renal): 6.23 µM
GI50 (BT-549 breast): 1.88 µM
TGI (BT-549 breast): 4.01 µM
GI50 (CAKI-1 renal): 1.93 µM
TGI (CAKI-1 renal): 5.45 µM
GI50 (CCRF-CEM leukemia): 3.6 µM
TGI (CCRF-CEM leukemia): 13.3 µM
GI50 (COLO 205 colon): 2.62 µM
TGI (COLO 205 colon): 7.93 µM
GI50 (DU-145 prostate): 3.54 µM
TGI (DU-145 prostate): 14.7 µM
GI50 (EKVX NSCLC): 3.28 µM
TGI (EKVX NSCLC): 12.5 µM
GI50 (HCC-2998 colon): 3.66 µM
TGI (HCC-2998 colon): 13.2 µM
GI50 (HCT-116 colon): 1.74 µM
TGI (HCT-116 colon): 3.27 µM
GI50 (HCT-15 colon): 2.56 µM
TGI (HCT-15 colon): 7.51 µM
GI50 (HL-60(TB) leukemia): 1.72 µM
TGI (HL-60(TB) leukemia): 5.22 µM
GI50 (HOP-62 NSCLC): 2.52 µM
TGI (HOP-62 NSCLC): 6.96 µM
GI50 (HOP-92 NSCLC): 1.83 µM
TGI (HOP-92 NSCLC): 4.07 µM
GI50 (HS 578T breast): 2.02 µM
TGI (HS 578T breast): 5.15 µM
GI50 (IGROV1 ovarian): 6.83 µM
TGI (IGROV1 ovarian): 19.8 µM
GI50 (KM12 colon): 1.85 µM
TGI (KM12 colon): 3.72 µM
GI50 (LOX IMVI melanoma): 2.27 µM
TGI (LOX IMVI melanoma): 5.81 µM
GI50 (M14 melanoma): 1.8 µM
TGI (M14 melanoma): 3.38 µM
GI50 (MALME-3M melanoma): 1.94 µM
TGI (MALME-3M melanoma): 3.52 µM
GI50 (MCF7 breast): 2.01 µM
TGI (MCF7 breast): 4.96 µM
GI50 (MDA-MB-231 breast): 2.04 µM
TGI (MDA-MB-231 breast): 4.68 µM
GI50 (MDA-MB-435): 1.88 µM
TGI (MDA-MB-435): 3.76 µM
GI50 (MDA-MB-468 breast): 2.05 µM
TGI (MDA-MB-468 breast): 4.41 µM
GI50 (MOLT-4 leukemia): 2.65 µM
TGI (MOLT-4 leukemia): 8.57 µM
GI50 (NCI-H226 lung): 2 µM
TGI (NCI-H226 lung): 4.31 µM
GI50 (NCI-H23 lung): 2.48 µM
TGI (NCI-H23 lung): 6.88 µM
GI50 (NCI-H522 lung): 3.71 µM
TGI (NCI-H522 lung): 15.3 µM
GI50 (NCI/ADR-RES ovarian): 2.34 µM
TGI (NCI/ADR-RES ovarian): 5.52 µM
GI50 (OVCAR-3 ovarian): 1.87 µM
TGI (OVCAR-3 ovarian): 4.39 µM
GI50 (OVCAR-4 ovarian): 1.84 µM
TGI (OVCAR-4 ovarian): 3.79 µM
GI50 (OVCAR-5 ovarian): 2.43 µM
TGI (OVCAR-5 ovarian): 8.93 µM
GI50 (OVCAR-8 ovarian): 2.3 µM
TGI (OVCAR-8 ovarian): 5.89 µM
GI50 (PC-3 prostate): 2.3 µM
TGI (PC-3 prostate): 6.65 µM
GI50 (RPMI-8226 leukemia): 3.22 µM
TGI (RPMI-8226 leukemia): 14.9 µM
GI50 (RXF 393 renal): 1.48 µM
TGI (RXF 393 renal): 3.27 µM
GI50 (SF-268 CNS): 2.43 µM
TGI (SF-268 CNS): 8.3 µM
GI50 (SF-295 CNS): 3.59 µM
TGI (SF-295 CNS): 13.7 µM
GI50 (SF-539 CNS): 1.62 µM
TGI (SF-539 CNS): 3 µM
GI50 (SK-MEL-2 melanoma): 5.39 µM
TGI (SK-MEL-2 melanoma): 19.7 µM
GI50 (SK-MEL-28 melanoma): 1.73 µM
TGI (SK-MEL-28 melanoma): 3.19 µM
GI50 (SK-MEL-5 melanoma): 1.64 µM
TGI (SK-MEL-5 melanoma): 3.16 µM
GI50 (SK-OV-3 ovarian): 4.32 µM
TGI (SK-OV-3 ovarian): 15.6 µM
GI50 (SN12C renal): 1.8 µM
TGI (SN12C renal): 4.08 µM
GI50 (SNB-19 CNS): 4.3 µM
TGI (SNB-19 CNS): 16.1 µM
GI50 (SNB-75 CNS): 1.49 µM
TGI (SNB-75 CNS): 3.35 µM
GI50 (SW-620 colon): 2.11 µM
TGI (SW-620 colon): 5.1 µM
GI50 (T-47D breast): 2.43 µM
TGI (T-47D breast): 6.5 µM
GI50 (TK-10 renal): 3.13 µM
TGI (TK-10 renal): 11.9 µM
GI50 (U251 CNS): 2.09 µM
TGI (U251 CNS): 4.24 µM
GI50 (UACC-257 melanoma): 2.38 µM
TGI (UACC-257 melanoma): 6.02 µM
GI50 (UACC-62 melanoma): 1.84 µM
TGI (UACC-62 melanoma): 5.05 µM
GI50 (UO-31 renal): 11.2 µM
TGI (UO-31 renal): 23.6 µM
